Key:
[1] = tested on: rabbit corneal cell SIRC; test: SIRC corneal cell irritation test (ocular irritation SIRC model); type: cell-based
Method: Detection method was rabbit corneal cell SIRC cell viability test. To-be-tested cells were washed 1˜2 times with PBS. 100 μL of MEM complete medium and 10 μL of CCK-8 solution were added to each well, and placed in a carbon dioxide incubator, for incubation of 2˜4 h. The absorbancy (OD) value was measured at 450 nm wavelength. CCK-8 reagent can be replaced with MTT.

[2] = tested on: chorioallantoic membrane
[3] = tested on: 3T3 cell; details: GB/T 21769-2008
[4] = tested on: Skin; details: GB17149.2-1997
[5] = target: T1, tyrosinase (Mus musculus, UniProt P11344); test: Enzyme activity test for tyrosinase in α-MSH-induced B16 cells; type: cell-based; details: 24.25 μM/10 ppm; inducer 0.1 μg/mL (63 nM) α-MSH
T1 construct: endogenous in cells; host or cells: B16 mouse melanoma cells
T1 sequence (P11344 19-533): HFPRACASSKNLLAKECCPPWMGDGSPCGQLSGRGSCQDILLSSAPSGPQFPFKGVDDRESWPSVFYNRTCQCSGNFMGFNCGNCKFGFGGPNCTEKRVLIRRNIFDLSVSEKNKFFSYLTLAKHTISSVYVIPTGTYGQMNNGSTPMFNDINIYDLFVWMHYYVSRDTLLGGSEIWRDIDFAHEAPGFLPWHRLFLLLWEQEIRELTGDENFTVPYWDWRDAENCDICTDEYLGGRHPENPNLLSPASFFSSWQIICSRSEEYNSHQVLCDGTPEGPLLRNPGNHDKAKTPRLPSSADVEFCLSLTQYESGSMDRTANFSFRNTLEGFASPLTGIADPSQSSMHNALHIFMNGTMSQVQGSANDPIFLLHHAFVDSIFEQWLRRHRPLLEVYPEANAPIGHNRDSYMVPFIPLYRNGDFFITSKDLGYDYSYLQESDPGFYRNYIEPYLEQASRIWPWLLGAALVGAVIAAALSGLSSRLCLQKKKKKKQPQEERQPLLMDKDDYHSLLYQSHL
Method: (§1) A method for in vitro testing whitening efficacy for B16 mouse melanoma cells was designed according to Association Standard T/SHRH 021-2019 for cosmetics whitening efficacy test, in combination with NCBI and CNKI literature research:
Cell samples having been treated by an inducer (α-MSH) and a to-be-tested substance were placed in a 96-well cell culture plate, for repeated freeze-thawing lysis. To each well 100 μL of 0.1˜0.5% levodopa was added, incubation was performed in a 37° C. cell incubator for about 2 h. the absorbancy (OD) value was measured at 450 nm wavelength.

[6] = tested on: Skin; test: Efficacy for actual volunteer population (skin elasticity and skin tone, CK instrument); type: in vivo, human; details: 20 ppm in basic cream, whole face; 14th and 28th days
Excerpt: Test population: experimental group of 15 people, placebo group of 15 people (31-54 years old, female).
Method of use: volunteers used the cream once every morning and evening, with 1 g per use, and uniformly applied the cream on the whole face.
Test instrument: CK instrument.
Test method: using cutometer and Colorimeter probes of the CK instrument to respectively perform a skin elasticity test and a skin tone test on a random side cheek of each volunteer, in a constant-temperature and constant-humidity environment, […]

[7] = tested on: Blood cell; details: Toxicology in Vitro 13 (1999) 343~354
[8] = tested on: Human immortalized keratinocytes HaCaT; details: 24.25 μM; HaCaT cells
Method: It was tested whether ATP in HaCaT cells would be affected by EAC-L-carnosine. Human immortalized keratinocytes HaCaT having been treated with the test substance were fully lysed using a certain amount of cell lysate, and centrifuged at 4° C. and 12000 g for 5 min. Supernatant was taken, and cell lysis samples of each experimental group were added to a 96-well assay plate (opaque) at 20 μL/well. ATP detection solution was further added at 100 μL/well. The plate was left to stand at room temperature for 3˜5 min. Self-luminescence intensity was detected using a full-waveband plate reader.

[9] = tested on: H2O2-induced HaCaT cells; test: Anti-aging repair test for stratum corneum cell under oxidative stress (H2O2); type: cell-based, human; details: 24 h sample repair after H2O2 damage
Excerpt: In order to study the anti-aging repair efficacy of the raw material of the present disclosure to stratum corneum cell under oxidative stress, according to Anti-wrinkly and Firming Lifting Efficacy Test of Cosmetics—In vitro Test Method of Reactive Oxygen Species (ROS) Inhibition with keratinocytes (Association Standard T/SHRH 032-2020), oxidative damage cell models were constructed with H2O2-induced HaCaT cells, and relative proliferation rate and ROS expression quantity of the cells were respectively measured.
Washing was performed for 3˜5 times with a serum-free culture medium. 100 μL of serum-free culture medium was added.

[10] = tested on: Human immortalized keratinocytes HaCaT; details: about 24 μM/10 ppm; UVA 15 J/cm^2
Method: The plate was placed under a specific ultraviolet device, and UVA irradiation dose was 15 J/cm^2. After the induction was completed, the drug-containing PBS was removed, and replaced with a culture medium containing the to-be-tested sample, and they were placed in a carbon dioxide incubator.
ROS detection: after 24 h, a certain amount of DCFH-DA working solution was used in replacement. Incubation was performed in the dark for 15˜30 min. Washing was performed for 3˜5 times with serum-free culture medium. 100 μL of serum-free culture medium was added.
Cell viability detection: after 24 h, a serum-free culture medium containing 10% of CCK-8 was used in replacement. After incubation of 2˜4 h in a carbon dioxide incubator, an OD value was detected at 450 nm wavelength.
HaCat with damage induced by a certain dose of UVA was chosen, to construct a keratinocyte UVA damage cell model.

[11] = tested on: B16 mouse melanoma cells; test: Measurement of melanin content in α-MSH-induced B16 cells; type: cell-based; details: for melanin inhibition (in words): 24.25 μM (about 10 ppm), inducer 0.1 μg/mL (63 nM) α-MSH
Method: as §1
Cell samples having been treated by the inducer (α-MSH) and the to-be-tested substance were placed in a 6-well cell culture plate. 0.5˜2 mL of cell lysate was added. The culture plate was allowed to stand in a 65° C. constant-temperature oven for 2 h. Then, after the lysate was uniformly mixed, the lysate was added to a 96-well assay plate at 150 μL/well. The absorbancy (OD) value was measured at 450 nm wavelength.

[12] = tested on: human primary fibroblasts FB; test: Synthesis test of type I collagen of fibroblast; type: cell-based; details: 24.25 μM/10 ppm; FB supernatant, ELISA
Method: According to Anti-wrinkly and Firming Lifting Efficacy Test of Cosmetics—In vitro Test Method of Collagen I Contents with fibroblasts (Association Standard T/SHRH 032-2020), human primary fibroblasts FB were used to measure influence of each raw material group on collagen secretion of FB at a concentration (24.25 μM/10 ppm).
The plate was placed in a carbon dioxide incubator for incubation for 24 h+2 h. After incubation was finished, 200 μL of cell culture supernatant was collected per well in a 1.5 mL sterile centrifuge tube, and stored frozen in an ultra-low temperature freezer at −80° C.
Human type I collagenase immunization kit was used for ELISA detection. First, a standard was used for detection and a standard curve was plotted, and then a collagen content contained in the fibroblast supernatant diluted at an appropriate ratio was measured.

[13] = tested on: HFF human foreskin fibroblast; test: Fibroblast anti-aging repair test under UVA photoaging stress; type: cell-based; details: about 24 μM/10 ppm; UVA 5 J/cm^2
Method: 100 μL of serum-free culture medium was added.
HYP (cell lysate) content detection: a hydroxyproline (HYP) content detection kit was used. First, a HYP standard was used for detection and a standard curve was plotted, and then a HYP […] content contained in the fibroblast lysate diluted at an appropriate ratio was measured.
Type I collagen content detection: human type I collagenase (Col I) immunization kit was used for ELISA detection. First, a type I collagen standard was used for detection and a standard curve was plotted, and then a collagen content contained in the fibroblast supernatant diluted at an appropriate ratio was measured.

CCOC1=C(O)C(=O)O[C@@H]1[C@@H](O)COC(=O)[C@H](Cc1c[nH]cn1)NC(=O)CCN [Example 1, 3-O-ethyl ascorbic acid-L-carnosine]
SIRC irritation conclusion ([1]; 10 ppm solution sample): no irritant
CSR (SIRC cell viability) ([1]; 10 ppm solution sample, SN/T 3084.2-2014): 106.0
Test Conclusion, Ocular irritation SIRC model ([1]; OECD 491): pass
HET-CAM irritation conclusion ([2]; 10 ppm solution sample): non-irritant
IS (HET-CAM) ([2]; 10 ppm solution sample, SN/T 2329-2009): 0
Test Conclusion, Ocular irritation HET-CAM model ([2]; SN329-2009): pass
Test Conclusion, Phototoxicity 3T3 cell model [3]: pass
Test Conclusion, Skin patch test and trial test [4]: pass
tyrosinase inhibition versus EAC, L-carnosine and their physical mixture [5]: better capability of inhibiting tyrosinase
ITA skin tone of the test group population [6]: significant trend of elevation
Test Conclusion, Blood cell hemolysis test model [7]: pass
improvement of ATP expression compared with blank group [8]: 25.0%
ROS expression quantity after H2O2 damage [9]: significantly down-regulate the ROS expression quantity
cell activity after H2O2 damage [9]: significantly improve cell activity
activity of keratinocytes after UVA irradiation [10]: up-regulating the activity of keratinocytes after UVA irradiation
generation of free radical ROS after UVA, HaCaT [10]: significantly inhibiting the generation of free radical ROS
hydroxyproline HYP after UVA, HaCaT [10]: significantly activating collagen precursor hydroxyproline HYP
melanin inhibition (in words) ([11]; listed as EAC-L-Carnosine): significant effect of inhibiting melanin secretion
melanin inhibition (in words) ([11]; listed as EAC-L-carnosine): significantly improved capability of inhibiting final melanin
down-regulation of melanin secretion ([11]; 24.25 μM, B16 cells, α-MSH inducer): 27.85%
collagen I generation versus EAC, dipeptide monomer and their mixture [12]: more significant effect on promoting collagen generation
activity of fibroblasts after UVA irradiation [13]: significantly up-regulating the activity of fibroblasts after UVA irradiation
generation of free radical ROS after UVA, HFF [13]: significantly inhibiting the generation of free radical ROS
hydroxyproline HYP after UVA, HFF [13]: significantly activating collagen precursor hydroxyproline HYP

— patent publication US20240261204A1, “ASCORBIC ACID POLYPEPTIDE DERIVATIVE, PREPARATION METHOD THEREFOR, AND APPLICATION THEREOF” (HARVEST BIOTECH CO., LTD, priority 2021, published 2024)
